Patent US20240382564A1, “Methods and Compositions for Treating Muscular Dystrophy and Memory Impairment” (Allysta Pharmaceuticals, Inc., priority 2023, published 2024)
Where no end group is shown, it is not given here. [ ]: non-standard residue; d: D form. Nva = CCC[C@H](N)C(=O)O

What was measured:
[1] = test system: D2.mdx mice; assay: Fibrosis by Masson's trichrome staining of muscle sections after ALY688 treatment; assay type: in vivo, mouse
Description: (§1) D2.mdx mice were treated with ALY688 at two different dosages; high dose (HD; 15 mg/kg body weight/day) or low dose (LD; 3 mg/kg body weight/day) dissolved in saline. A separate group of mice were treated with saline alone (VEH, vehicle). Treatment was provided via subscapular subcutaneous injections from 7 days of age to 28-30 days. […] At 28-30 days of age, mice were anaesthetized with isoflurane vaporized in medical air (21% oxygen) at a 2 L/min flow rate. Due to tissue limitations in limb muscle, certain measures were performed separately in tibialis anterior and quadriceps across several phases of breeding. […]
Samples collected were cut into 8 µm thick serial cross sections with a cryostat (Thermo Fisher Scientific; Kalamazoo, MI, United States;) maintained at −20° C. on Fisherbrand Superfrost Plus slides (Thermo Fisher Scientific). […] Centralized nuclei, a marker of regenerating fibres, was analyzed by selecting five evenly spaced images throughout the muscle and averaging the result. Areas of damage (fibres with fragmented sarcoplasm and immune cell infiltration) were expressed as a percentage of the entire muscle section. Images were taken using EVOS M7000 imager (Thermo Fisher Scientific) using 20× magnification and analyzed using ImageJ (http://imagej.nih.gov/ij/). […] These images were then analyzed with ImageJ for minimal Feret's diameter as an index of muscle atrophy.

[2] = test system: D2.mdx mice; assay: Mitochondrial respiration in permeabilized muscle fibre bundles; assay type: in vivo, mouse; conditions: quadriceps and diaphragm; multiple substrate conditions; LD and HD
Description: as §1, with “breeding. Following the treatment protocol, in situ quadriceps force assessments were then performed in one limb followed by removal of the quadriceps from the other limb for mitochondrial assessments, diaphragm for in vitro force assessments and finally other tissues for further processing as described below.” for “breeding.”
High resolution oxygen consumption (an index of mitochondrial respiration) was performed in 2 mL of MiRO5 supplemented with (creatine-dependent) or without (creatine independent) 20 mM creatine to saturate mitochondrial creatine kinase activity. O2 consumption was measured using the Oroboros Oxygraph-2K (Oroboros Instruments, Corp., Innsbruck, Austria) while stirring at 37° C. in the presence of 5 μM blebbistatin to prevent muscle fibre contraction by rigor in response to ADP. […]

## [dN]IP[Nva]LY[dS]FA[dS]-NH2 [ALY688]
[1]; diaphragm, both doses (LD 3, HD 15 mg/kg/day s.c., 7 to 28-30 days of age)
  attenuation of diaphragm fibrosis (collagen content): 66.7-67.6%
[1]; tibialis anterior
  partial prevention of fibrosis and atrophy in tibialis anterior: not observed
[2]
  ADP-stimulated respiration: generally no effect of either dose
